{
  "source": "the supplement of paper PMC12490022",
  "note": "± gives the uncertainty stated by the source.",
  "data": [
    {"test_system": "ozone", "assay": "apparent second-order rate constant for reaction with ozone (kapp,O3) (M-1 s-1); higher = faster oxidation by ozone", "details": "pH 7; temperature: 22 C; OH radical scavenger: tBuOH 80 mM; phosphate 4 mM", "protocol": "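Apparent second-order rate constants for reaction with ozone at pH 7 were determined by multicompound competition kinetics. Mixtures of targets and competitors (10 ug/L each) were ozonated in 4 mM phosphate buffer, pH 7, with 80 mM tBuOH as OH-radical scavenger, at 22 ± 1 °C. Peak-area abatement was measured by HPLC-HRMS/MS and k was derived from ln-ln slopes against competitors with known k (R2 > 0.9, >= 10 points, slope 0.1-10). Experiments were run in triplicate on 3 days; the value is the mean over valid competitors ± SD.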", "values": [
      {"compound": "C#CCNC(C)Cc1ccccc1", "note": "(stereo not drawn) [Nordeprenyl]", "apparent second-order rate constant": "14000 ± 1200"},
      {"compound": "COc1c(CSc2nc3ccc(OC(F)F)cc3[nH]2)[nH]ccc1=O", "note": "[4'-O-Demethyl-pantoprazole sulfide]", "apparent second-order rate constant": "21000 ± 2000"},
      {"compound": "CC(C)c1nc(NS(C)(=O)=O)nc(-c2ccc(F)cc2)c1C=CC(O)CC(O)CC(=O)O", "note": "(stereo not drawn) [N-Desmethylrosuvastatin]", "apparent second-order rate constant": "26000 ± 2800"},
      {"compound": "CC(C)(C(=O)O)c1ccc(C(O)CCC[N+]2([O-])CCC(C(O)(c3ccccc3)c3ccccc3)CC2)cc1", "note": "(stereo not drawn) [Fexofenadine-N-oxide]", "apparent second-order rate constant": "11.9 ± 1.3"},
      {"compound": "O=C(O)Cc1ccccc1Nc1c(Cl)cc(O)cc1Cl", "note": "[4'-Hydroxydiclofenac]", "apparent second-order rate constant": "6.95 ± 0.38"},
      {"compound": "Cc1ccc(C(=O)C(C)CN2CCCCC2)cc1", "note": "(stereo not drawn) [Tolperisone]", "apparent second-order rate constant": "17400 ± 1700"},
      {"compound": "O=C1C=CC(=C2NC=CNC2=O)C=C1", "note": "[Amoxicillin impurity F]", "apparent second-order rate constant": "3.75e+06 ± 540000"},
      {"compound": "CNC(C)C(O)c1ccccc1", "note": "(stereo not drawn) [Pseudoephedrine]", "apparent second-order rate constant": "1370 ± 110"},
      {"compound": "CC(N)Cc1ccccc1", "note": "(stereo not drawn) [Amphetamine]", "apparent second-order rate constant": "34 ± 4"},
      {"compound": "NC(=O)N1c2ccccc2CC(O)c2ccccc21", "note": "(stereo not drawn) [Licarbazepine]", "apparent second-order rate constant": "10.9 ± 1.2"},
      {"compound": "CC(Cc1ccc(C(C)C(=O)O)cc1)C(=O)O", "note": "(stereo not drawn) [Carboxyibuprofen]", "apparent second-order rate constant": "11.8 ± 1.3"},
      {"compound": "COCC(=O)Nc1c(I)c(C(=O)NCC(O)CO)c(I)c(C(=O)N(C)CC(O)CO)c1I", "note": "(stereo not drawn) [Iopromide]", "apparent second-order rate constant": "2.14 ± 0.23"},
      {"compound": "CNC1(c2ccccc2Cl)CCCCC1=O", "note": "(stereo not drawn) [Ketamine]", "apparent second-order rate constant": "10400 ± 1000"},
      {"compound": "COc1ccc(CCN(C)CCCC(C#N)(c2ccc(OC)c(OC)c2)C(C)C)cc1OC", "note": "(stereo not drawn) [Verapamil]", "apparent second-order rate constant": "64000 ± 14000"},
      {"compound": "CN1CCCC1c1cccnc1", "note": "(stereo not drawn) [Nicotine]", "apparent second-order rate constant": "332000 ± 30000"},
      {"compound": "CC(C)NCC(O)COc1ccc(CC(=O)O)cc1", "note": "(stereo not drawn) [Atenolol acid]", "apparent second-order rate constant": "845 ± 57"},
      {"compound": "CNC(=C[N+](=O)[O-])NCCSCc1ccc(C[N+](C)(C)[O-])o1", "note": "[Ranitidine-N-oxide]", "apparent second-order rate constant": "3.45e+06 ± 340000"},
      {"compound": "CC(C)c1c(C(=O)Nc2ccccc2)c(-c2ccccc2)c(-c2ccc(F)cc2)n1CCC(O)CC(O)CC(=O)O", "note": "(stereo not drawn) [Atorvastatin]", "apparent second-order rate constant": "1.5e+08 ± 3e+07"},
      {"compound": "COc1ccc(C(CN(C)C)C2(O)CCCCC2)cc1", "note": "(stereo not drawn) [Venlafaxine]", "apparent second-order rate constant": "3440 ± 260"},
      {"compound": "COC(=O)C(c1ccccc1)C1CCCCN1", "note": "(stereo not drawn) [Methylphenidate]", "apparent second-order rate constant": "4300 ± 360"},
      {"compound": "Nc1nc(=O)n(C2CSC(CO)O2)cc1F", "note": "(stereo not drawn) [Emtricitabine]", "apparent second-order rate constant": "79000 ± 70000"},
      {"compound": "CN1C2CCC1C(C(=O)O)C(OC(=O)c1ccccc1)C2", "note": "(stereo not drawn) [Benzoylecgonine]", "apparent second-order rate constant": "11.3 ± 1.2"},
      {"compound": "CC12CCC(=O)C=C1CCC1C2C(=O)CC2(C)C1CCC2(O)C(=O)CO", "note": "(stereo not drawn) [Cortisone]", "apparent second-order rate constant": "436 ± 22"},
      {"compound": "CNCC(c1ccc(O)cc1)C1(O)CCCCC1", "note": "(stereo not drawn) [N,O-Didesmethylvenlafaxine]", "apparent second-order rate constant": "1.99e+06 ± 120000"},
      {"compound": "COc1ccc2c(c1)c(CC(=O)OCC(=O)O)c(C)n2C(=O)c1ccc(Cl)cc1", "note": "[Acemethacin]", "apparent second-order rate constant": "1.04e+06 ± 86000"},
      {"compound": "CC(=O)OC1C=CC2C3Cc4ccc(O)c5c4C2(CCN3C)C1O5", "note": "(stereo not drawn) [6-Acetylmorphine]", "apparent second-order rate constant": "1.29e+07 ± 1.1e+06"},
      {"compound": "CC[N+]([O-])(CC)CC(=O)Nc1c(C)cccc1C", "note": "[Lidocaine-N-oxide]", "apparent second-order rate constant": "10.9 ± 1.2"},
      {"compound": "Clc1ccc(C(c2ccccc2)N2CCNCC2)cc1", "note": "(stereo not drawn) [1-(4-Chlorobenzhydryl)piperazine]", "apparent second-order rate constant": "7700 ± 630"},
      {"compound": "CC(C)c1c(C(=O)Nc2ccc(O)cc2)c(-c2ccccc2)c(-c2ccc(F)cc2)n1CCC(O)CC(O)CC(=O)O", "note": "(stereo not drawn) [para-Hydroxyatorvastatin]", "apparent second-order rate constant": "6.6e+07 ± 1.4e+07"},
      {"compound": "Cc1cc(=O)[nH]c2c1NC(=O)c1cccnc1N2C1CC1", "note": "[2-Hydroxynevirapine]", "apparent second-order rate constant": "1.56e+07 ± 1.2e+06"},
      {"compound": "Nc1ccc(S(=O)(=O)Nc2ccccn2)cc1", "note": "[Sulfapyridine]", "apparent second-order rate constant": "537000 ± 180000"},
      {"compound": "O=C(O)COCC[N+]1([O-])CCN(C(c2ccccc2)c2ccc(Cl)cc2)CC1", "note": "(stereo not drawn) [Cetirizine-N-oxide]", "apparent second-order rate constant": "5670 ± 460"},
      {"compound": "Oc1ccc(C(F)(F)F)cc1", "note": "[4-Trifluoromethylphenol]", "apparent second-order rate constant": "1.43e+06 ± 150000"},
      {"compound": "Cc1ccnc2c1NC(=O)c1cccnc1N2C1CC1", "note": "[Nevirapine]", "apparent second-order rate constant": "86 ± 9"},
      {"compound": "Cc1cccc(Nc2ccccc2C(=O)O)c1C", "note": "[Mefenamic acid]", "apparent second-order rate constant": "1.12e+06 ± 80000"},
      {"compound": "CCC(c1cccc(OS(=O)(=O)O)c1)C(C)CN(C)C", "note": "(stereo not drawn) [Tapentadol-O-sulfate]", "apparent second-order rate constant": "1530 ± 150"},
      {"compound": "CCC1OC(=O)C(C)C(OC2CC(C)(OC)C(O)C(C)O2)C(C)C(OC2OC(C)CC(NC)C2O)C(C)(OC)CC(C)C(=O)C(C)C(O)C1(C)O", "note": "(stereo not drawn) [N-Desmethylclarithromycin]", "apparent second-order rate constant": "6500 ± 520"},
      {"compound": "CC(=O)Nc1ccc(O)cc1", "note": "[Paracetamol]", "apparent second-order rate constant": "2.4e+06 ± 180000"},
      {"compound": "O=C(O)CCC(=O)O", "note": "[Succinic acid]", "apparent second-order rate constant": "< 0.401"},
      {"compound": "C[N+]1([O-])CCN2c3ccccc3Cc3ccccc3C2C1", "note": "(stereo not drawn) [Mianserin-N-oxide]", "apparent second-order rate constant": "295000 ± 26000"},
      {"compound": "CC(C)NCC(O)COc1ccc(CC(N)=O)cc1", "note": "(stereo not drawn) [Atenolol]", "apparent second-order rate constant": "1580 ± 72"},
      {"compound": "CC(=O)Oc1ccc(C(c2ccc(OC(C)=O)cc2)c2ccccn2)cc1", "note": "[Bisacodyl]", "apparent second-order rate constant": "2.6 ± 0.3"},
      {"compound": "O=c1ncnc2[nH][nH]cc1-2", "note": "[Allopurinol]", "apparent second-order rate constant": "3.9 ± 0.4"},
      {"compound": "CC(C)(Oc1ccc(Cl)cc1)C(=O)O", "note": "[Clofibric acid]", "apparent second-order rate constant": "23 ± 3"},
      {"compound": "CCC(CC)OC1C=C(C(=O)O)CC(N)C1NC(C)=O", "note": "(stereo not drawn) [Oseltamivir acid]", "apparent second-order rate constant": "87000 ± 7700"},
      {"compound": "c1ccc2c(c1)Cc1ccccc1N1CCNCC21", "note": "(stereo not drawn) [Normianserin]", "apparent second-order rate constant": "570000 ± 48000"},
      {"compound": "CCNCC(=O)Nc1c(C)cccc1C", "note": "[Lidocaine-N-desethyl]", "apparent second-order rate constant": "17000 ± 1700"},
      {"compound": "COC(=O)C1=CCC2CCC1N2C", "note": "(stereo not drawn) [Anhydroecgonine methyl ester]", "apparent second-order rate constant": "44000 ± 10000"},
      {"compound": "COC(=O)C(C)c1ccc2cc(OC)ccc2c1", "note": "(stereo not drawn) [Naproxen methyl ester]", "apparent second-order rate constant": "278000 ± 25000"},
      {"compound": "COc1cc(Cc2cnc(N)nc2N)cc(OC)c1O", "note": "[4-Desmethyltrimethoprim]", "apparent second-order rate constant": "3.6e+07 ± 86"},
      {"compound": "CCN1CCCC1CNC(=O)c1cc(S(=O)(=O)CC)c(N)cc1OC", "note": "(stereo not drawn) [Amisulpride]", "apparent second-order rate constant": "18000 ± 1600"},
      {"compound": "Nc1cc(Cl)c(S(N)(=O)=O)cc1S(N)(=O)=O", "note": "[4-Amino-6-chlorobenzene-1,3-disulfonamide]", "apparent second-order rate constant": "90.5 ± 4.7"},
      {"compound": "CC(N)C(O)c1ccccc1", "note": "(stereo not drawn) [Norephedrine]", "apparent second-order rate constant": "45.5 ± 2.3"}
    ]}
  ]
}
